Measured values: patent publication US20020177572A1, “Viral infection of cells” (priority 1997, published 2002)
Residues, ends and D or L forms follow the SMILES beside them. *: point of attachment. Cbz = O=C(OCc1ccccc1)*; OtBu = CC(C)(C)O*

Assays:
[1] = test system: M-CSF-treated human monocytes; assay: Cytokine production in response to various stimuli (ELISA); assay type: cell-based; settings: production induced by the stimulus; means of 4-11 experiments
Experimental: The elutriated human monocytes were incubated at approximately 2×10^6/ml in RPMI 1640 with 25 mM HEPES and 2 mM L-glutamine, supplemented with 5% (v/v) heat inactivated fetal calf serum and 10 units/ml penicillin/streptomycin. […] The cells were then replated on 100 mm Petri dishes and infected for 2 h with a m.o.i. of between 10:1 and 120:1 (in most experiments, 20:1. 40:1 or 80:1 was used) of either AdvIκBα or Adv0, in serum-free RPMI 1640. Cells were then incubated in RPMI 1640 supplemented as above for 48 h to allow for significant over-expression of IκBα, as assessed. During the changes of medium involved, non-adherent cells were discarded, resulting in a further purification of monocyte-derived macrophages.
(§1) In the assays for cytokine production, cells were replated at 5×10^5 cells per well on a 96-well dish, and stimulated as above for 4 or 16 h. Supernatants were analysed for TNFα (27), IL-1β, IL-6 and IL-8 (23), IL-10 (29, 30), IL-1ra and the p55 and p75 soluble TNF receptors (31) by ELISA. The proteosome inhibitor Cbz-Ile-Glu(O-t-Bu)-Ala-leucinal (PSI) was obtained from Calbiochem (Nottingham. England).
LPS is capable of inducing all the cytokines (TNFα, IL-1β, IL-6, IL-8) and inhibitors (IL-10, IL-1ra and the soluble TNF receptors) assayed in this study (Table I; the results are means of 4-11 experiments). The induction of TNFα mRNA by zymosan, has previously been reported to be far weaker than LPS-induced TNFα mRNA in mouse peritoneal macrophages (32), but the TNFα response to zymosan in M-CSF-treated human monocytes was equal to that of LPS (Table 1).

primary human monocytes = assay: Adenoviral infection of primary human monocytes (β-galactosidase expression by FACS); assay type: cell-based; settings: prior cytokine treatment for 72 hours, then β-galactosidase adenovirus at 100 m.o.i.
Experimental: Human monocytes or murine RAW 264.7 were cultured at 5×10^5/ml in RPM1 1640 (Bio Whittaker inc.) supplemented with 5% (v/v) heat inactivated foetal calf serum containing 10 units/ml penicillin/streptomycin and 2 mM glutamine at 37° C. Monocytes were treated with GM-CSF (5U/ml) or M-CSF (1 μg/ml) for 72 hours. Expression of integrins was assayed by indirect immunofluorescence and FACS analysis using monoclonal antibodies to αVβ3 (100 μg/ml LM609, provided by IXSYS Corp. (San Diego Calif. USA), or αVβ5 (undiluted active supernatant kindly provided by J. Gamble Smith). The commercially available monoclonal antibody OX14(100 μg/ml) was used as a negative control.
Following cytokine treatment monocytes were washed in RPM 1640 and resuspended at 5×10^5 cells/ml. The cells were infected with virus at the indicated plaque forming units per cell (multiplicity of infection—m.o.i.). β-galactosidase expression in individual cells was measured by FACS.

U937 = assay: Adenovirus infection and integrin induction in U937 cell line; assay type: cell-based, human; settings: results not shown
THP-1 = assay: Adenovirus infection and integrin induction in THP-1 cell line; assay type: cell-based, human; settings: results not shown
[2] = test system: human monocyte-derived macrophages; assay: Effect of proteosome inhibitor PSI on induced TNFα production; assay type: cell-based; settings: FIG. 14
Experimental: as §1
The independence from NFκB of zymosan induced TNF was further emphasised by studies with the proteosome inhibitor PSI. Inhibition of proteosome function inhibits IκBα degradation thus preventing NFκB nuclear translocation.

Row | Molecule | Anti-inflammatory cytokines: IL-10 [1] | Anti-inflammatory cytokines: IL-tra [1] | Anti-inflammatory cytokines: P55 s TNF-R [1] | Anti-inflammatory cytokines: P75 s TNF-R [1] | Proinflammatory cytokines: IL-1 [1] | Proinflammatory cytokines: IL-6 [1] | Proinflammatory cytokines: IL-8 [1] | Proinflammatory cytokines: TNFα [1] | cells expressing the β-galactosidase gene (primary human monocytes) | induction of αVβ3 or αVβ5 expression (U937) | induction of αVβ3 or αVβ5 expression (THP-1) | further results
1 | CCCCCCCCCCCCCC(=O)O[C@@H]1[C@@H](C)[C@@]2(O)[C@@H](C=C(CO)C[C@]3(O)C(=O)C(C)=C[C@@H]23)[C@@H]2C(C)(C)[C@]12OC(C)=O [PMA] | 0 pg/mL | 1000 pg/mL | 0 pg/mL | 500 pg/mL | 400 pg/mL | 300 pg/mL | 3000 pg/mL | 6000 pg/mL | – | – | – | –
2 | GM-CSF: granulocyte-macrophage colony stimulating factor | – | – | – | – | – | – | – | – | 52% | neither cytokine was able to induce | neither cytokine was able to induce | –
3 | C[C@H](CCC(=O)O)C[C@H](C)C[C@H](C)C(=O)/C=C(\O)[C@H](C)C[C@H](C)C/C=C/[C@@H](C)[C@@H](O)[C@@H](C)[C@@H](O)C[C@@H]1CC[C@@](C)([C@H]2CC[C@@](C)([C@@H](C)O)O2)O1 [Lomycin, ionomycin] | 0 pg/mL | 0 pg/mL | 0 pg/mL | 0 pg/mL | 0 pg/mL | 0 pg/mL | 900 pg/mL | 0 pg/mL | – | – | – | –
4 | CC[C@H](C)[C@H](NC(=O)OCc1ccccc1)C(=O)N[C@@H](CCC(=O)OC(C)(C)C)C(=O)N[C@@H](C)C(=O)N[C@H](C=O)CC(C)C [PSI, Cbz-Ile-Glu(O-t-Bu)-Ala-leucinal] (Cbz-IE(OtBu)AL-aldehyde) | – | – | – | – | – | – | – | – | – | – | – | effect on LPS induced TNF production ([2]; LPS): very effective in blocking; effect on zymosan-induced TNF production ([2]; zymosan): did not affect
5 | TNFα | 0 pg/mL | – | – | – | 200 pg/mL | 2000 pg/mL | – | – | – | – | – | –
6 | M-CSF: macrophage colony stimulating factor (protein, UniProt P09603 33-554, looked up) Macrophage colony-stimulating …: EEVSEYCSHMIGSGHLQSLQRLIDSQMETSCQITFEFVDQEQLKDPVCYLKKAFLLVQDIMEDTMRFRDNTPNAIAIVQLQELSLRLKSCFTKDYEEHDKACVRTFYETPLQLLEKVKNVFNETKNLLDKDWNIFSKNCNNSFAECSSQDVVTKPDCNCLYPKAIPSSDPASVSPHQPLAPSMAPVAGLTWEDSEGTEGSSLLPGEQPLHTVDPGSAKQRPPRSTCQSFEPPETPVVKDSTIGGSPQPRPSVGAFNPGMEDILDSAMGTNWVPEEASGEASEIPVPQGTELSPSRPGGGSMQTEPARPSNFLSASSPLPASAKGQQPADVTGTALPRVGPVRPTGQDWNHTPQKTDHPSALLRDPPEPGSPRISSLRPQGLSNPSTLSAQPQLSRSHSSGSVLPLGELEGRRSTRDRRSPAEPEGGPASEGAARPLPRFNSVPLTDTGHERQSEGSFSPQLQESVFHLLVPSVILVLLAVGGLLFYRWRRRSHQEPQRADSPLEQPEGSPLTQDDRQVELPV | – | – | – | – | – | – | – | – | 90% | neither cytokine was able to induce | neither cytokine was able to induce | –
